# Laboratory results: patent US9999690B2, “Labeled compounds and methods of imaging, diagnosing cartilage disorders and diseases, and monitoring cartilage health using labeled and unlabeled compounds” (Perosphere Inc., priority 2013, dated 2018)
# Where “and” joins values, the source holds several entries; their conditions need not be identical. Identical values can stand only once.
# Experiments:
# [1] = In vivo safety study in humans; conditions: intravenous bolus doses up to 200 mg
# Method: A study was conducted to test the safety profile of labeled formula XIII in humans in intravenous bolus doses up to 200 mg.
# [2] = Rat blood PK samples after intravenous injection, Group 1; format: in vivo; conditions: rat Group 1, IV injection, in ng-eq/g
# Method: (§1) A study was conducted to determine the pharmacokinetics, rates and routes of excretion with mass baseline and tissue distribution of radioactivity, after a single intravenous dose administration of formula XIII (also referred to as [^14C]DAP) was administered to the rats by tail vein intravenous injection at a
# (§2) The study was conducted on 19 male rats divided into 4 groups. The first group of 6 rats was used for blood collection (Group 1); the second group of 4 rats was used for urine, feces, cage rinses and wipes and carcasses collection (Group 2); the third group of 4 rats was used for expired air collection (Group 3); the fourth group of 5 rats was used for terminal blood/serum and tissue distribution by Quantitative Whole-Body Autoradiography (QWBA) (Group 4).
# [3] = In vivo toxicity study, rats; conditions: rat, read-out: Maximum tolerated dose
# Method: A study was conducted to test the toxicity of labeled formula XIII in rats and dogs. Maximum tolerated doses were 40 mg/kg for rats and 35 mg/kg for dogs.
# [4] = Rat mass balance recovery (urine, feces, cage rinses and wipes, carcasses, expired air), Groups 2 and 3; format: in vivo; parameters: Mass Balance Recovery, Feces Subtotal / Mass Balance Recovery, Expired Air, Trap 1 / Mass Balance Recovery, Expired Air, Trap 1 Subtotal: unit not given here; conditions: for Mass Balance Recovery, Feces / Mass Balance Recovery, Cage Rinse / Mass Balance Recovery, Dose Site Wipe / Mass Balance Recovery, Urine / Mass Balance Recovery, Cage Wipe / Mass Balance Recovery, Carcass / Mass Balance Recovery, Feces Subtotal / Mass Balance Recovery, Cage Rinse Subtotal / Mass Balance Recovery, Urine Subtotal: rat Group 2, IV dose; for Mass Balance Recovery, Dose Site Wipe: 0 hrs; for Mass Balance Recovery, Cage Wipe / Mass Balance Recovery, Carcass: 96 hrs; for Mass Balance Recovery, Expired Air, Trap 1 / Mass Balance Recovery, Expired Air, Trap 1 Subtotal: rat Group 3, IV dose; for Mass Balance Recovery, TOTAL: rat Groups 2 and 3, IV dose
# Method: as §1, §2
# [5] = Rat blood PK and blood to serum ratio, Group 4; format: in vivo
# Method: as §1, §2
# For Group 4, formula XIII (QWBA was run at 1, 8, 12, 24 and 72 hours post dose. After terminal blood collection, each euthanized animal was frozen in a hexane/dry ice bath and embedded in a 2% carboxymethylcellulose matrix according to MPI Research SOP ADME-112. The embedded carcasses were sectioned according to MPI Research SOP ADME-113 on a Leica CM3600 Cyromacrotome set to maintain −10 to −30° C. At least four fortified quality control standards of known radioactive concentration were placed into the frozen block prior to sectioning and used for section thickness quality control. The quality control standards were sectioned under the same conditions as the specimen. The intrasection and intersection variation of collected sections were determined by analyzing the quality control standards. Section variation must be less than 20% for quantitative analysis. Sections that were approximately 40μm thick were taken in the sagittal plane. Appropriate sections selected at various levels of interest in the block were collected to encompass the following tissues, organs, and biological fluids, where possible: adrenal gland, bladder (urinary) and contents (urine), blood (cardiac), bone, bone marrow, brain, eye, fat (brown), fat (white), heart, kidney, large intestine/cecum and contents, liver, lung, muscle, pancreas, prostate, salivary glands, skin, small intestine and contents, spleen, stomach and contents, testes, thymus, thyroid, mesenteric lymph nodes, and epididymis. A set of sections were mounted, exposed to phosphor imaging screens and scanned using the Storm 860 image acquisition system according to MPI Research SOP ADME-112. Quantification, relative to the calibration standards, were performed by image densitometry using MCID™ image analysis software according to MPI Research SOP ADME-114. A standard curve was constructed from the integrated response (MDC/mm2) and the nominal concentrations of the [^14C]Glucose calibration standards. Relative error should be less than 0.5 for each point on the curve. The concentrations of radioactivity were expressed as μCi/g and were converted to μg or ng-equivalents of DAP per gram of sample (μg- or ng-eq/g) using the specific activity of administered [^14C]DAP dose formulation. A lower limit of quantification (LLOQ) was applied to the data. The LLOQ was determined using the radioactive concentration of the lowest calibration standard used to generate a calibration curve divided by the specific activity of the dose formulation (μCi/ug). Artifacts, such as those produced by dislodged contents of the alimentary canal, were excluded from analysis during image analysis.
# [6] = 24-48 hrs, Mean, in % (unit assumed)
# [7] = 24-48 hrs, individual rats 201M-204M, in % (unit assumed)
# [8] = 48-72 hrs, Mean, in % (unit assumed)
# [9] = 48-72 hrs, individual rats 201M-204M, in % (unit assumed)
# [10] = 72-96 hrs, Mean, in % (unit assumed)
# [11] = 72-96 hrs, individual rats 201M-204M, in % (unit assumed)
# [12] = individual rats 201M-204M, in % (unit assumed)
compound,measurement,setting,value
[2H]C1([2H])N(CCCNC(=O)[C@@H](N)CCCNC(=N)N)C([2H])([2H])C([2H])([2H])N(CCCNC(=O)[C@@H](N)CCCNC(=N)N)C1([2H])[2H] [formula XIII],safety profile,[1],excellent safety profile
same,Rat Blood PK Samples,"[2]; 0.083 hrs, Mean",12494.00
same,Rat Blood PK Samples,"[2]; 0.083 hrs, individual rats",12283.00 and 12343.00 and 12856.00
same,Rat Blood PK Samples,"[2]; 0.250 hrs, Mean",7636.87
same,Rat Blood PK Samples,"[2]; 0.250 hrs, individual rats",6989.90 and 8433.50 and 7487.20
same,Rat Blood PK Samples,"[2]; 0.5 hrs, Mean",4715.77
same,Rat Blood PK Samples,"[2]; 0.5 hrs, individual rats",4890.10 and 4595.70 and 4661.50
same,Rat Blood PK Samples,"[2]; 1 hrs, Mean",1639.20
same,Rat Blood PK Samples,"[2]; 1 hrs, individual rats",1277.80 and 2173.10 and 1466.70
same,Rat Blood PK Samples,"[2]; 2 hrs, Mean",497.04
same,Rat Blood PK Samples,"[2]; 2 hrs, individual rats",513.73 and 503.14 and 474.26
same,Rat Blood PK Samples,"[2]; 4 hrs, Mean",251.03
same,Rat Blood PK Samples,"[2]; 4 hrs, individual rats",244.30 and 269.75 and 239.03
same,Rat Blood PK Samples,"[2]; 8 hrs, Mean",187.88
same,Rat Blood PK Samples,"[2]; 8 hrs, individual rats",207.32 and 187.12 and 169.19
same,Rat Blood PK Samples,"[2]; 12 hrs, Mean",145.76
same,Rat Blood PK Samples,"[2]; 12 hrs, individual rats",149.71 and 148.64 and 138.94
same,Rat Blood PK Samples,"[2]; 24 hrs, Mean",99.45
same,Rat Blood PK Samples,"[2]; 24 hrs, individual rats",105.64 and 108.29 and 84.43
same,Rat Blood PK Samples,"[2]; 48 hrs, Mean",50.56
same,Rat Blood PK Samples,"[2]; 48 hrs, individual rats",49.28 and 52.03 and 50.38
same,Rat Blood PK Samples,"[2]; 72 hrs, Mean",24.63
same,Rat Blood PK Samples,"[2]; 72 hrs, individual rats",23.54 and 33.09 and 17.27
same,Rat Blood PK Samples,"[2]; 96 hrs, Mean",17.23
same,Rat Blood PK Samples,"[2]; 96 hrs, individual rats",17.39 and 16.69 and 17.60
same,MTD,[3],40 mg/kg
same,"Mass Balance Recovery, Feces","[4]; 0-8 hrs, Mean, in % (unit assumed)",0.02
same,"Mass Balance Recovery, Feces","[4]; 0-8 hrs, individual rats 201M-204M",0.00 and 0.04 (2×) and 0.01
same,"Mass Balance Recovery, Cage Rinse","[4]; 0-24 hrs, Mean, in % (unit assumed)",1.74
same,"Mass Balance Recovery, Cage Rinse","[4]; 0-24 hrs, individual rats 201M-204M, in % (unit assumed)",2.48 and 0.91 and 1.94 and 1.63
same,"Mass Balance Recovery, Dose Site Wipe",[4]; Mean,0.01%
same,"Mass Balance Recovery, Dose Site Wipe",[4]; individual rats 201M-204M,0.01% (3×) and 0%
same,"Mass Balance Recovery, Feces","[4]; 8-24 hrs, Mean, in % (unit assumed)",1.82
same,"Mass Balance Recovery, Feces","[4]; 8-24 hrs, individual rats 201M-204M, in % (unit assumed)",1.34 and 2.04 and 2.40 and 1.49
same,"Mass Balance Recovery, Cage Rinse",[4]; [6],0.32
same,"Mass Balance Recovery, Feces",[4]; [6],0.93
same,"Mass Balance Recovery, Urine",[4]; [6],3.71
same,"Mass Balance Recovery, Feces","[4]; 24-48 hrs, individual rats 201M-204M",1.18 and 0.70 (2×) and 1.15
same,"Mass Balance Recovery, Cage Rinse",[4]; [7],0.37 and 0.21 and 0.38 and 0.30
same,"Mass Balance Recovery, Urine",[4]; [7],3.83 and 3.59 and 4.50 and 2.92
same,"Mass Balance Recovery, Cage Rinse",[4]; [8],0.18
same,"Mass Balance Recovery, Feces",[4]; [8],0.42
same,"Mass Balance Recovery, Urine",[4]; [8],1.58
same,"Mass Balance Recovery, Urine","[4]; 48-72 hrs, individual rats 201M-204M",1.61% (2×) and 1.73% and 1.36%
same,"Mass Balance Recovery, Cage Rinse",[4]; [9],0.13 and 0.11 and 0.20 and 0.28
same,"Mass Balance Recovery, Feces",[4]; [9],0.46 and 0.41 and 0.54 and 0.26
same,"Mass Balance Recovery, Cage Rinse",[4]; [10],0.16
same,"Mass Balance Recovery, Feces",[4]; [10],0.25
same,"Mass Balance Recovery, Urine",[4]; [10],0.94
same,"Mass Balance Recovery, Cage Rinse",[4]; [11],0.12 and 0.11 and 0.24 and 0.15
same,"Mass Balance Recovery, Feces",[4]; [11],0.31 and 0.26 and 0.27 and 0.15
same,"Mass Balance Recovery, Urine",[4]; [11],0.97 and 1.03 and 0.96 and 0.79
same,"Mass Balance Recovery, Cage Wipe","[4]; Mean, in % (unit assumed)",0.10
same,"Mass Balance Recovery, Carcass","[4]; Mean, in % (unit assumed)",2.71
same,"Mass Balance Recovery, Cage Wipe",[4]; [12],0.08 and 0.06 and 0.20 and 0.04
same,"Mass Balance Recovery, Carcass",[4]; [12],2.74 and 2.80 and 2.60 and 2.68
same,"Mass Balance Recovery, Feces Subtotal",[4]; Mean,3.44
same,"Mass Balance Recovery, Cage Rinse Subtotal","[4]; Mean, in % (unit assumed)",2.39
same,"Mass Balance Recovery, Urine Subtotal","[4]; Mean, in % (unit assumed)",89.51
same,"Mass Balance Recovery, Feces Subtotal",[4]; individual rats 201M-204M,3.29 and 3.45 and 4.37 and 2.64
same,"Mass Balance Recovery, Cage Rinse Subtotal",[4]; [12],3.10 and 1.34 and 2.76 and 2.36
same,"Mass Balance Recovery, Urine Subtotal",[4]; [12],89.44 and 90.60 and 87.85 and 90.14
same,"Mass Balance Recovery, Expired Air, Trap 1","[4]; 0-24 hrs, Mean",0.03
same,"Mass Balance Recovery, Expired Air, Trap 1","[4]; 0-24 hrs, individual rats 301M-304M",0.03 (3×) and 0.02
same,"Mass Balance Recovery, Expired Air, Trap 1","[4]; 24-48 hrs, Mean",0.00
same,"Mass Balance Recovery, Expired Air, Trap 1","[4]; 24-48 hrs, individual rats 301M-304M",0.00
same,"Mass Balance Recovery, Expired Air, Trap 1","[4]; 48-72 hrs, Mean",0.01
same,"Mass Balance Recovery, Expired Air, Trap 1","[4]; 48-72 hrs, individual rats 301M-304M",0.00 (3×) and 0.05
same,"Mass Balance Recovery, Expired Air, Trap 1 Subtotal",[4]; Mean,0.04
same,"Mass Balance Recovery, Expired Air, Trap 1 Subtotal",[4]; individual rats 301M-304M,0.03 (2×) and 0.02 and 0.08
same,"Mass Balance Recovery, TOTAL","[4]; (201M/301M to 204M/304M), in % (unit assumed)",98.72 and 98.32 and 97.83 and 97.98
same,"Mass Balance Recovery, TOTAL","[4]; Mean, in % (unit assumed)",98.21
same,time after administration by which the vast majority is excreted (urinary excretion kinetics),"[4]; rat, single IV dose, FIG. 6",< 24 h
same,total recovery,"[4]; rat, single intravenous administration, Groups 2 and 3, FIG. 8",98.21±0.4%
same,Blood:Serum Ratio,"[5]; rat Group 4, 1 hrs, rat 401M",0.44
same,Blood:Serum Ratio,"[5]; rat Group 4, 8 hrs, rat 402M",1.32
same,Blood:Serum Ratio,"[5]; rat Group 4, 12 hrs, rat 403M",1.84
same,Blood:Serum Ratio,"[5]; rat Group 4, 24 hrs, rat 404M",2.27
same,Blood:Serum Ratio,"[5]; rat Group 4, 72 hrs, rat 405M",2.53
